Results taken from ChEMBL document CHEMBL2176881, “Development of N-[4-[6-(isopropylamino)pyrimidin-4-yl]-1,3-thiazol-2-yl]-N-methyl-4-[11C]methylbenzamide for positron emission tomography imaging of metabotropic glutamate 1 receptor in monkey brain” (J Med Chem, 2012).

What was measured:
[1] = Drug uptake in monkey cingulate cortex at 185 to 220 MBq, iv after 10 to 60 mins by PET analysis; type: ADME, organism-based, Macaca mulatta; conditions: rhesus monkey, in vivo
Brain [2] = assay: Biodistribution in ddY mouse brain at 4.8 MBq/0.1 mL after 15 mins by gamma counting; type: ADME, organism-based; conditions: in vivo, 0.25 h
Mus musculus [3] = species: Mus musculus; assay: Biodistribution in ddY mouse small intestine at 4.8 MBq/0.1 mL after 90 mins by gamma counting; type: ADME, organism-based; conditions: in vivo, 1.5 h
Mus musculus [4] = species: Mus musculus; assay: Biodistribution in ddY mouse testis at 4.8 MBq/0.1 mL after 60 mins by gamma counting; type: ADME, organism-based; conditions: in vivo, 1 h
Blood [5] = assay: Biodistribution in ddY mouse blood at 4.8 MBq/0.1 mL after 60 mins by gamma counting; type: ADME, organism-based; conditions: in vivo, 1 h
[6] = Metabolic stability in Sprague-Dawley plasma assessed as unchanged drug level at 37 MBq/0.1 mL, iv after 5 mins; type: ADME, organism-based; conditions: rat, read-out: Stability
Liver [7] = assay: Biodistribution in ddY mouse liver at 4.8 MBq/0.1 mL after 60 mins by gamma counting; type: ADME, organism-based; conditions: in vivo, 1 h
Mus musculus [8] = species: Mus musculus; assay: Biodistribution in ddY mouse testis at 4.8 MBq/0.1 mL after 5 mins by gamma counting; type: ADME, organism-based; conditions: in vivo
Mus musculus [9] = species: Mus musculus; assay: Biodistribution in ddY mouse testis at 4.8 MBq/0.1 mL after 15 mins by gamma counting; type: ADME, organism-based; conditions: in vivo, 0.25 h
Spleen [10] = assay: Biodistribution in ddY mouse spleen at 4.8 MBq/0.1 mL after 90 mins by gamma counting; type: ADME, organism-based; conditions: in vivo, 1.5 h
Heart [11] = assay: Biodistribution in ddY mouse heart at 4.8 MBq/0.1 mL after 15 mins by gamma counting; type: ADME, organism-based; conditions: in vivo, 0.25 h
Liver [12] = assay: Biodistribution in ddY mouse liver at 4.8 MBq/0.1 mL after 30 mins by gamma counting; type: ADME, organism-based; conditions: in vivo, 0.5 h
[13] = Drug uptake in monkey caudate assessed as distribution volume ratio at 185 to 220 MBq, iv after 10 to 90 mins by PET analysis; type: ADME, organism-based, Macaca mulatta, Caudate nucleus; conditions: rhesus monkey, in vivo
Liver [14] = assay: Biodistribution in ddY mouse liver at 4.8 MBq/0.1 mL after 1 min by gamma counting; type: ADME, organism-based; conditions: in vivo
Liver [15] = assay: Biodistribution in ddY mouse liver at 4.8 MBq/0.1 mL after 5 mins by gamma counting; type: ADME, organism-based; conditions: in vivo
Muscle tissue = assay: Biodistribution in ddY mouse muscle at 4.8 MBq/0.1 mL after 60 mins by gamma counting; type: ADME, organism-based; conditions: in vivo, 1 h
[16] = Metabolic stability in Sprague-Dawley brain assessed as unchanged drug level at 37 MBq/0.1 mL, iv after 60 mins; type: ADME, organism-based; conditions: rat, read-out: Stability
Mus musculus [17] = species: Mus musculus; assay: Biodistribution in ddY mouse small intestine at 4.8 MBq/0.1 mL after 1 min by gamma counting; type: ADME, organism-based; conditions: in vivo
Mus musculus [18] = species: Mus musculus; assay: Biodistribution in ddY mouse large intestine at 4.8 MBq/0.1 mL after 90 mins by gamma counting; type: ADME, organism-based; conditions: in vivo, 1.5 h
Lung [19] = assay: Biodistribution in ddY mouse lung at 4.8 MBq/0.1 mL after 15 mins by gamma counting; type: ADME, organism-based; conditions: in vivo, 0.25 h
Spleen [20] = assay: Biodistribution in ddY mouse spleen at 4.8 MBq/0.1 mL after 1 min by gamma counting; type: ADME, organism-based; conditions: in vivo
[21] = Drug uptake in monkey cerebellum at 185 to 220 MBq, iv after 10 to 60 mins by PET analysis; type: ADME, organism-based, Macaca mulatta; conditions: rhesus monkey, in vivo
Spleen [22] = assay: Biodistribution in ddY mouse spleen at 4.8 MBq/0.1 mL after 5 mins by gamma counting; type: ADME, organism-based; conditions: in vivo
Heart [23] = assay: Biodistribution in ddY mouse heart at 4.8 MBq/0.1 mL after 90 mins by gamma counting; type: ADME, organism-based; conditions: in vivo, 1.5 h
Lung [24] = assay: Biodistribution in ddY mouse lung at 4.8 MBq/0.1 mL after 90 mins by gamma counting; type: ADME, organism-based; conditions: in vivo, 1.5 h
Pancreas [25] = assay: Biodistribution in ddY mouse pancreas at 4.8 MBq/0.1 mL after 5 mins by gamma countingeas; type: ADME, organism-based; conditions: in vivo
Mus musculus [26] = species: Mus musculus; assay: Biodistribution in ddY mouse small intestine at 4.8 MBq/0.1 mL after 30 mins by gamma counting; type: ADME, organism-based; conditions: in vivo, 0.5 h
[27] = Drug uptake in monkey cingulate cortex at 185 to 220 MBq, iv after 20 mins by PET analysis; type: ADME, organism-based, Macaca mulatta; conditions: rhesus monkey, in vivo
[28] = Metabolic stability in Sprague-Dawley plasma assessed as unchanged drug level at 37 MBq/0.1 mL, iv after 15 mins; type: ADME, organism-based; conditions: rat, read-out: Stability
Pancreas [29] = assay: Biodistribution in ddY mouse pancreas at 4.8 MBq/0.1 mL after 60 mins by gamma countingeas; type: ADME, organism-based; conditions: in vivo, 1 h
Mus musculus [30] = species: Mus musculus; assay: Biodistribution in ddY mouse testis at 4.8 MBq/0.1 mL after 1 min by gamma counting; type: ADME, organism-based; conditions: in vivo
[31] = Metabolic stability in monkey plasma assessed as unchanged drug level at 185 MBq/0.1 mL, iv after 60 mins; type: ADME, organism-based, Macaca mulatta; conditions: rhesus monkey, read-out: Stability
Heart [32] = assay: Biodistribution in ddY mouse heart at 4.8 MBq/0.1 mL after 60 mins by gamma counting; type: ADME, organism-based; conditions: in vivo, 1 h
[33] = Metabolic stability in monkey plasma assessed as unchanged drug level at 185 MBq/0.1 mL, iv after 30 mins; type: ADME, organism-based, Macaca mulatta; conditions: rhesus monkey, read-out: Stability
Blood [34] = assay: Biodistribution in ddY mouse blood at 4.8 MBq/0.1 mL after 1 min by gamma counting; type: ADME, organism-based; conditions: in vivo
[35] = Drug uptake in monkey thalamus at 185 to 220 MBq, iv after 10 to 60 mins by PET analysis; type: ADME, organism-based, Macaca mulatta; conditions: rhesus monkey, in vivo
Brain [36] = assay: Biodistribution in ddY mouse brain at 4.8 MBq/0.1 mL after 60 mins by gamma counting; type: ADME, organism-based; conditions: in vivo, 1 h
Pancreas [37] = assay: Biodistribution in ddY mouse pancreas at 4.8 MBq/0.1 mL after 30 mins by gamma countingeas; type: ADME, organism-based; conditions: in vivo, 0.5 h
[38] = Drug uptake in monkey cerebellum assessed as distribution volume ratio at 185 to 220 MBq, iv after 10 to 90 mins by PET analysis; type: ADME, organism-based, Macaca mulatta; conditions: rhesus monkey, in vivo
Liver [39] = assay: Biodistribution in ddY mouse liver at 4.8 MBq/0.1 mL after 15 mins by gamma counting; type: ADME, organism-based; conditions: in vivo, 0.25 h
Kidney [40] = assay: Biodistribution in ddY mouse kidney at 4.8 MBq/0.1 mL after 1 min by gamma counting; type: ADME, organism-based; conditions: in vivo
Mus musculus [41] = species: Mus musculus; assay: Biodistribution in ddY mouse large intestine at 4.8 MBq/0.1 mL after 15 mins by gamma counting; type: ADME, organism-based; conditions: in vivo, 0.25 h
Mus musculus [42] = species: Mus musculus; assay: Biodistribution in ddY mouse large intestine at 4.8 MBq/0.1 mL after 5 mins by gamma counting; type: ADME, organism-based; conditions: in vivo
Liver [43] = assay: Biodistribution in ddY mouse liver at 4.8 MBq/0.1 mL after 90 mins by gamma counting; type: ADME, organism-based; conditions: in vivo, 1.5 h
[44] = Metabolic stability in Sprague-Dawley brain assessed as unchanged drug level at 37 MBq/0.1 mL, iv after 30 mins; type: ADME, organism-based; conditions: rat, read-out: Stability
Kidney [45] = assay: Biodistribution in ddY mouse kidney at 4.8 MBq/0.1 mL after 90 mins by gamma counting; type: ADME, organism-based; conditions: in vivo, 1.5 h
Blood [46] = assay: Biodistribution in ddY mouse blood at 4.8 MBq/0.1 mL after 90 mins by gamma counting; type: ADME, organism-based; conditions: in vivo, 1.5 h
Mus musculus [47] = species: Mus musculus; assay: Biodistribution in ddY mouse small intestine at 4.8 MBq/0.1 mL after 5 mins by gamma counting; type: ADME, organism-based; conditions: in vivo
[48] = Metabolic stability in Sprague-Dawley brain assessed as unchanged drug level at 37 MBq/0.1 mL, iv after 5 mins; type: ADME, organism-based; conditions: rat, read-out: Stability
[49] = Drug uptake in monkey putamen at 185 to 220 MBq, iv after 10 mins by PET analysis; type: ADME, organism-based, Macaca mulatta; conditions: rhesus monkey, in vivo

CC(C)Nc1cc(-c2csc(N(C)C(=O)c3ccc([14CH3])cc3)n2)ncn1
Drug uptake [1]: Active
Drug uptake (Brain [2]): 1.99 % ID/g
Drug uptake (Mus musculus [3]): 7.09 % ID/g
Drug uptake (Mus musculus [4]): 0.13 % ID/g
Drug uptake (Blood [5]): 0.05 % ID/g
remaining at 5 min [6]: 67.9%
Drug uptake (Liver [7]): 0.51 % ID/g
Drug uptake (Mus musculus [8]): 0.63 % ID/g
Drug uptake (Mus musculus [9]): 0.41 % ID/g
Drug uptake (Spleen [10]): 0.02 % ID/g
Drug uptake (Heart [11]): 0.27 % ID/g
Drug uptake (Liver [12]): 1.43 % ID/g
Ratio [13]: 1.5
Drug uptake (Liver [14]): 11.47 % ID/g
Drug uptake (Liver [15]): 11.38 % ID/g
Drug uptake (Muscle tissue): 0.07 % ID/g
remaining at 1 h [16]: 98.2%
Drug uptake (Mus musculus [17]): 10.07 % ID/g
Drug uptake (Mus musculus [18]): 7.02 % ID/g
Drug uptake (Lung [19]): 0.86 % ID/g
Drug uptake (Spleen [20]): 1.74 % ID/g
Drug uptake [21]: Active
Drug uptake (Spleen [22]): 0.93 % ID/g
Drug uptake (Heart [23]): 0.01 % ID/g
Drug uptake (Lung [24]): 0.12 % ID/g
Drug uptake (Pancreas [25]): 1.23 % ID/g
Drug uptake (Mus musculus [26]): 16.53 % ID/g
SUV [27]: 0.9
remaining at 0.25 h [28]: 47.6%
Drug uptake (Pancreas [29]): 0.03 % ID/g
Drug uptake (Mus musculus [30]): 1.07 % ID/g
remaining at 1 h [31]: 28.4%
Drug uptake (Heart [32]): 0.06 % ID/g
remaining at 0.5 h [33]: 35.8%
Drug uptake (Blood [34]): 3.09 % ID/g
Drug uptake [35]: Active
Drug uptake (Brain [36]): 1.04 % ID/g
Drug uptake (Pancreas [37]): 0.06 % ID/g
Ratio [38]: 4.3
Drug uptake (Liver [39]): 4.89 % ID/g
Drug uptake (Kidney [40]): 11.12 % ID/g
Drug uptake (Mus musculus [41]): 1.2 % ID/g
Drug uptake (Mus musculus [42]): 1.03 % ID/g
Drug uptake (Liver [43]): 0.3 % ID/g
remaining at 0.5 h [44]: 97%
Drug uptake (Kidney [45]): 0.11 % ID/g
Drug uptake (Blood [46]): 0.02 % ID/g
Drug uptake (Mus musculus [47]): 66.76 % ID/g
remaining at 5 min [48]: 94%
Drug uptake [49]: Active
